According to patent US20210285940A1, “Improved Fluorescent Resonance Energy Transfer-Based Biosensor Proteins And Their Methods of Use Thereof” (Pebble Labs Inc., priority 2018, published 2021):
Several values for one entry are separate records, joined by “and”; a condition that tells them apart may be missing. Equal entries are not always repeated.

Experiments:
[1] = Control experiments for photo-bleaching; assay type: physicochemical; details: three consecutive spectrum records, 20° C.
Experimental: For measurements associated with examination of ligand-induced response of TqLPNG biosensor fluorescence emission 0.1 mM BAI-2 stock solution was freshly prepared and contained 1 mM DPD and 4 mM boric acid in 50 mM HEPES buffer (pH 7.5) (Semmelhack et al., 2005). To test the biosensor fluorescence response for BAI-2 binding 400 μL samples having the same biosensor concentration (50 nM) and variable BAI-2 concentrations in 50 mM HEPES (pH 7.5)/0.4 mM boric acid/0.1 mM EDTA/0.15 M NaCl were prepared from the protein and the ligand stock solutions using analytical balances. Fluorescence emission spectra were taken following 3 min temperature equilibration of the sample within the temperature controlled cell holder (set for 20° C.).

[2] = Prolonged storage of TqLPNG examined through size-exclusion chromatography; assay type: physicochemical
Experimental: FIG. 12: Accumulation of high order associates of TqLPNGh during its prolonged storage in the salt-free 50 mM HEPES (pH 7.5)/0.1 mM EDTA buffer at 4° C., examined through size-exclusion chromatography. The purified TqLPNG preparation (at ˜ 9 μM protein concentration) was stored at 4° C. in plain He buffer (containing 0.25 mM DTT and 0.25 mM TCEP) at 4° C. for about 3 weeks. 0.25 mL of the TqLPNGh solution was then mixed the equal volume of the appropriate buffer to get 0, 0.15 or 0.3 M NaCl final concentration. Following 1-2 hrs incubation (at 4° C.), the diluted protein was injected into Superdex 20010/300 column equlibrated with He, He+0.15 M NaCl or He+0.3 M NaCl buffer, respectively. The protein elution was detected through absorbance at 280 nm. The flow rate was 0.5 mL/min. The large overlapping peaks at 9-12 elution volume correspond to high order TqLPNG associates. Positions of peakes corresponding to TqLPNG dimer or monomer are marked with the arrows.
The reasonable question that follows deciphering the origin of the TqLPNG fluorescence emission response towards BAI-2 binding is to understand the optimal conditions for the biosensor-based determination of BAI-2 concentrations. Low NaCl conditions provide an increased change in acceptor-to-donor emission ratio for the BAI-2 binding favorable for accurate BAI-2 quantification. […] Thus, there should by a compromise between the binding amplitude of the observable signal (i.e., the decrease in the acceptor-to-donor emission ratio corresponding to fully saturated biosensor) and stability of the TqLPNG preparation (against the formation of high order associates).

[3] = TqLPNG fluorescence emission response towards BAI-2 binding at different NaCl concentrations; assay type: biochemical
Experimental: FIG. 8 (A-B): Response of the fluorescence emission spuctrum of TqLPNGh towards BAI-2 binding at different concentrations.of sodium chloride. Emission spectra (solid lines) were deconvoluted into the donor (dotted lines) and the acceptor (dashed lines) emission components, and the evaluation for the FRET efficiency (E values) was performed through enhancement in the acceptor emission referenced to the directly excited acceptor emission (the grey lines) as described under Materials and Methods. The spectra were recorded by using an excitation wavelength of 440 nm. Measurements were performed in a 50 mM HEPES (pH 7.5)/0.1 mM EDTA buffer (containing the specified amount of NaCl) with 50 nM TLPNGh.
FIG. 9: An example of fluorescence emission spectrum of TqLPNGh and its response to BAI-2 binding. (9A) Emisson spectra of 50 nM TqLPNGh in 50 mM HEPES (pH 7.5)/0.1 mM EDTA buffer in the absence (the grey line) and in the presence of 10 μM BAI-2 (the black line). The spectra were recorded by using a 440 nm excitation wavelength. (9B) Dependence of the BAI-2 binding TqLPNGh emission response (expressed as decrease in acceptor-to-donor emission ratio induced by BAI-2 binding) on concentration of NaCl.
TqLPNG fluorescence response towards BAI-2 binding was examined at different concentrations of NaCl (see FIG. 8). At any salt concentration, BAI-2 binding yielded an increase in the biosensor donor emission and the corresponding decrease in the acceptor emission, originated from the ligand-induced decrease in FRET between the donor and the acceptor chromophores. Indeed, for any salt concentration BAI-2 binding caused a decrease in FRET efficiency (follow the E-values in FIG. 8) and associated decrease in the acceptor-to-donor emission ratio. […] The observable BAI-2 binding amplitude was maximal at low salt buffer (−49%), strongly dropped at 0.15 M and became too small (for BAI-2 quantification applications) at 0.3 M and higher NaCl concentrations. […]
A Cary 300 spectrophotometer (Agilent/Varian Technologies) and FluoroMax fluorescence spectrophotometer (Horiba Scientific) equipped with Peltier-based temperature controlled cell holders were used for absorbance and fluorescence measurements, respectively. […] Fluorescence emission spectra were recorded in a 4 mm fluorescence cell by using 2 nm slit width at both excitation and emission monochromators. Typically, 50 nM protein concentrations were employed for fluorescence measurements. […]
FRET efficiency in TqLPNG was determined under variety of solution conditions by measurements of the emission spectra of TqLPNG (DA-species) alternatively excited at 440 nm and 505 nm. […]

[4] = Titration of TqLPNGh biosensor with BAI-2 monitored through acceptor-to-donor emission ratio; assay type: binding
Experimental: FIG. 13: Titration of TqLPNGh biosensor with autoinducer BAI-2 monitored through acceptor-to-donor emission ratio (A-to-D ratio). Measurements of TqLPNGh fluorescence emission spectra were performed in 50 mM HEPES (pH 7.5)/0.1 mM EDTA/0.4 mM boric acid//0.15 M NaCl buffer using 50 nM TqLPNGh. Emission spectra of TqLPNG were recorded by using 440 nm excitation. The values for the A-to-D ratio for the BIA-2 titration (the filled circles) were fitted to the phenomenological Hill equation to get BAI-2 concentration corresponding to the half decrease in A-to-D ratio (C50%). The values for A-to-D ratio corresponding to the control titration, i.e., titration of TqLPNGh with the ligand-free plain buffer, are shown as unfilled circles.
The values for D-to-A fluorescence ratio values BAI-2 concentration were plotted and then fitted with the phenomenological Hill equation or with the simple single site binding model. […] The presence of boric acid in the assay buffer (i.e., 50 mM HEPES (pH 7.5)/0.1 mM EDTA/0.15 M NaCl/0.4 mM boric acid) may be beneficial. Deficiency in boric acid may cause strong reduction in the apparent ligand affinity, yielding enhanced Kd-value and, therefore, a strong decrease in biosensor sensitivity.]
A Cary 300 spectrophotometer (Agilent/Varian Technologies) and FluoroMax fluorescence spectrophotometer (Horiba Scientific) equipped with Peltier-based temperature controlled cell holders were used for absorbance and fluorescence measurements, respectively. To characterize fluorescent proteins, all measurements (including TqLPNGh titration with BAI-2) were performed at 20° C. with proteins prepared in 50 mM HEPES buffer (pH 7.5)/0.1 mM EDTA, containing different NaCl concentrations. Fluorescence emission spectra were recorded in a 4 mm fluorescence cell by using 2 nm slit width at both excitation and emission monochromators. Typically, 50 nM protein concentrations were employed for fluorescence measurements. The protein stock solutions were prepared in 50 mM HEPES buffer (pH 7.5)/0.1 mM EDTA/0.3 M NaCl at 2 μM (for the TqLPNG) or 10 μM (for Tqh or NGh) concentration.

- magnitude of decrease of the acceptor-to-donor emission ratio on BAI-2 titration ([3]; 50 mM HEPES (pH 7.5)/0.4 mM boric acid/0.1 mM EDTA, 0.15 M NaCl): ~17%
- observable BAI-2 binding amplitude ([3]; 0.3 M and higher NaCl): too small
- decrease in the acceptor to donor emission ratio upon autoinducer-2 binding ([3]; adjustable fluorescence response, maximum): up to 48%
- observable BAI-2 binding amplitude (decrease in acceptor-to-donor emission ratio, fully saturated) ([3]; low salt buffer): −49%
- EC50 ([4]; 50 nM TqLPNG, 50 mM HEPES (pH 7.5)/0.1 mM EDTA/0.15 M NaCl/0.4 mM boric acid, Hill equation fit, read-out: BAI-2 concentration corresponding to the half-transition (C50%) in emission response): 24 ± 1 nM
- Kd ([4]; 50 nM TqLPNG, 50 mM HEPES (pH 7.5)/0.1 mM EDTA/0.15 M NaCl/0.4 mM boric acid, single site binding model, read-out: BAI-2•TqLPNG dissociation constant (Kd)): 9 nM and 10 nM and ~10 nM
Substance: TqLPNG: tripartite FRET biosensor fusion mTurquoise2-(24-365)LuxP-mNeonGreen; TqLPNGh carries C-terminal His6 tag (SEQ ID NO. 2), SEQ ID NO. 3 lacks it
- changes in the fluorescence spectrum (photo-bleaching control) [1]: no changes
- stability against formation of high order associates ([2]; 0.3 M NaCl, prolonged storage at 4° C.): no formation of ‘inactive’ high-order associates
- stability against formation of high order associates ([2]; HEPES (pH 7.5) buffer containing 0.15 M NaCl): good stability
- stability against formation of high order associates ([2]; prolonged storage in low salt buffer, 4° C.): accumulation of high-order TqLPNG associates
- higher sensitivity towards BAI-2 concentration as compared to mCLPY biosensor ([4]; from dissociation constants 10 nM versus 270 nM): more than 10 fold
